Measurements published in publication PMC4727417, “Characterization of a novel 8R,11S-linoleate diol synthase from Penicillium chrysogenum by identification of its enzymatic products” (Journal of Lipid Research, 2016).
One block for each molecule: values may come before it.

Tests used:
[1] = target: T1, 8R,11S-linoleate diol synthase (8R,11S-LDS; PC_1) (Penicillium rubens, UniProt B6HQI5); assay: O2 uptake, Clark-type oxygen monitor, Hanes-Woolf plot; type: biochemical; conditions: DOX activity (N-terminal dioxygenase domain of the whole enzyme); co-substrate O2; 50 mM EPPS pH 8.0, 25°C
T1 construct: gene Pc22g06980; full length, 1,074 residues, C-terminal His6 (pET-21a), E. coli ER2566, HisTrap purified; calculated 120,998 Da; N-terminal DOX domain 1-669, C-terminal P450 hydroperoxide isomerase domain 670-1074

[2] = target: T1, 8R,11S-linoleate diol synthase (8R,11S-LDS; PC_1); assay: HPLC of dihydroxy fatty acid product, Hanes-Woolf plot; type: biochemical; conditions: whole enzyme activity: overall conversion to dihydroxy fatty acid by sequential DOX and hydroperoxide isomerase domains; 25°C, 50 mM EPPS pH 8.0
[3] = target: T1, 8R,11S-linoleate diol synthase (8R,11S-LDS; PC_1); assay: UV-visible spectroscopy, heme/protein absorption ratio (A410/A280); type: binding; conditions: heme occupancy of the purified enzyme
[4] = substrate: CCCCCC/C=C\CCCCCCCC(=O)O; assay: O2 uptake, Clark-type oxygen monitor, Hanes-Woolf plot; type: biochemical, Penicillium rubens; conditions: DOX activity (N-terminal dioxygenase domain of the whole enzyme), co-substrate O2, 50 mM EPPS pH 8.0, 25°C
Text: O2 uptake, Clark-type oxygen monitor, Hanes-Woolf plot on 8R,11S-linoleate diol synthase (8R,11S-LDS; PC_1)

Km [1]: 69.9 ± 0.3 µM
Km [2]: 138 ± 3.2 µM
Molecule: CC/C=C\C/C=C\C/C=C\CCCCCCCC(=O)O [α-linolenic acid]

Molecule: C=CC1=C(C)C2=Cc3c(C=C)c(C)c4[n]3[Fe][n]3c(c(C)c(CCC(=O)O)c3=CC3=NC(=C4)C(C)=C3CCC(=O)O)=CC1=N2 [heme]
UV-visible spectroscopy, heme/protein absorption ratio (A410/A280) [3]: Heme occupancy of the wild-type and H999A, C1001S, and H999A-C1001S variant enzymes

Km [1]: 18.9 ± 0.6 µM
Km [2]: 86.1 ± 1.8 µM
Molecule: CCCCC/C=C\C/C=C\CCCCCCCC(=O)O [linoleic acid]

Km [1]: 34.3 ± 1.2 µM
Molecule: CCCCCCCC/C=C\CCCCCCCC(=O)O [oleic acid]

B1: 8R,11S-linoleate diol synthase (8R,11S-LDS; PC_1) (Penicillium rubens Wisconsin 54-1255) (protein)
chain: MAEKESNSSGKIAQLEQVVAAALRPLPTQTGDGSYVQEPTVTGLAKDLLNFDLKDAKTLADMAKTAVTGKAVNDRDYIMERVIQLASGLPSTSRNGKELTNTFLTQLWGDLEHPPISYLGRDAAYRKADGSGNNTFWPQIGAANTPYARSVRPKTMQPVALPEPEALFDSLLARKDFKEHPNKISSVLFHLASIIIHDLFQTDPRDQTKSLTSSYLDLSPLYGNNQKEQDTVRAFKDGKLKPDCFSTKRVLGFPPGVGVILIMFNRFHNSVVTQLAAINEGGRFTKPDESNAEAYATWDNDLFQTARLVTCGLYINIILKDYVRTILNVNRTDSLWSLDPRADIRDGLLGEAPAQATGNQVSAEFNLVYRWHSCVSSRDEKWSEDLYKEIFDGKDPKEISMQQFTGGLRQWESKLPADPQERPFAKLQRQADGKFDDNDLVKIFEESVEDPAGAFGALNVPDVFRGIEVLGIKQARSWNLATLNEFRQYFGLAAYQTFEEINPDPYVANQLKHFYDHPDLVELYPGLVVEETKQAMTPGSGLCTNFTTSRAILSDAVALVRGDRFYTVDFTPKHLTNWAFNEINNDVSVDGGQVFYKLILKAFPNHFRGDSVYAHFPLVVPDENKKILTSLGKVKTYSFDRPFYKAPPLFINSHSACTKILKDQEGFKVVWGEKIQFLMENSGRPYGRDFALSGDLPANAASRKMIGAALHRDKWESEVKAFYEDITLKLLERNSFKVAGVNQVDIVRDVAVLAQVNFCANVFSLSLKTESNPRGVFSEQELYQILAVIFASIFYDVDVSKSLQLCQTARNVAQQLGELTLANVELVAKTGFISNLVNRLHRHDILSEYGIHMIQRLLDSQLPVKDVVWSHILPTAGALVANQGQLFSQCIDYYLSEEAAEHLAEIQRLSREDTPEADELLVRYFMEGARLRCSVALPRFATKPTVVDDNGKRVTLKAGQEIICNLVVAGRDPVAFPDPDKVRLDRDMSLYTHFGFGPHECLGVKMCPLALSTMLKVLGRLDNVRRAPGPQGHLKRLDGLGGIAMYMDAEHSSFSPFPMTMKIQWDGDLPARRE
notes: full length, 1,074 residues, C-terminal His6 (pET-21a), E. coli ER2566, HisTrap purified; calculated 120,998 Da; N-terminal DOX domain 1-669, C-terminal P450 hydroperoxide isomerase domain 670-1074
Km [4]: 20.0 ± 0.5 µM
kcat [4]: 81.8 ± 3.77 s⁻¹
kcat/Km [4]: 4.32e+06 M⁻¹ s⁻¹
